Reference: the Deep4Chem optical property database

Assay: solvent given as SMILES

`CCCCCCc1ccc(-n2c3[n+](c4c5ccccc5c5ccccc5c42)[B-](C)(C)c2cc(-n4c5ccccc5c5ccccc54)ccc2-3)cc1` showed an emission maximum (in C1CCOC1) of 409 nm, an emission maximum (in CC#N) of 409 nm and an emission maximum (in Cc1ccccc1) of 410 nm. The emission maximum (in ClCCl) was 408 nm.
`O=C1c2ccccc2-c2c(-c3ccc([N+](=O)[O-])cc3)c(-c3ccc([N+](=O)[O-])cc3)c(-c3ccccc3)c3cccc1c23` gave an emission maximum (in CC#N) of 496 nm and an emission maximum (in CO) of 509 nm.
With `CCn1c2ccccc2oc2c(C#N)c3oc4ccccc4oc3c(C#N)c21` the emission maximum (in ClC(Cl)Cl) was 555 nm.
Compound `CCCCN1C(=O)c2ccc3c4ccc5c6c(ccc(c7ccc(c2c37)C1=O)c64)C(=O)N(CCCC)C5=O` has an emission maximum (in ClC(Cl)Cl) of 533 nm.
Work on `c1ccc(-c2c3ccccc3c(-c3ccc4ccccc4c3)c3ccccc23)nc1` yielded an emission maximum (in ClCCl) of 431 nm.
For `O=S1(=O)c2ccc(-c3ccc4c(c3)c3ccccc3n4-c3ccccc3)cc2C2(c3cc(-c4ccc5c(c4)c4ccccc4n5-c4ccccc4)ccc31)c1cc(-c3ccc4c(c3)c3ccccc3n4-c3ccccc3)ccc1S(=O)(=O)c1ccc(-c3ccc4c(c3)c3ccccc3n4-c3ccccc3)cc12`, the emission maximum (in CC1CCCO1) was 413 nm.
`Cc1nc2cccc(-c3nc4ccccc4[nH]3)c2c(=O)[nH]1` showed an emission maximum (in CN(C)C=O) of 441 nm.
`C1=C(c2ccccc2)C=C(c2ccccc2)/C1=C/c1ccc(-c2cccs2)s1` gave an emission maximum (in C1CCOC1) of 503 nm.
Compound `C(=C\c1nc(-c2ccccc2)c2ccccn12)/c1nc(-c2ccccc2)c2ccccn12` has an emission maximum (in CC#N) of 491 nm.
Compound `c1ccc(-n2nc(-c3ccc(N4c5ccccc5Sc5ccccc54)cc3)nc2-c2ccccn2)cc1` has an emission maximum (in ClCCl) of 468 nm.
In the case of `Cn1c2cc(N3CCCCC3)c(F)cc2c(=O)c2cc(F)c(N3CCCCC3)cc21`, the emission maximum (in CCO) is reported as 455 nm.
`Cc1c(C(=O)c2ccccc2)c2ccc3cccc4c5cccc6ccc1c(c65)c2c34` showed an emission maximum (in ClCCl) of 478 nm.
For `COc1ccc(C#Cc2c3ccccc3c(C#Cc3ccc(OC)cc3)c3cc4sc(C)cc4cc23)cc1`, the emission maximum (in ClCCl) was 538 nm.
With `CC1=[N+]2C(=C(c3ccc(C(=C(c4ccccc4)c4ccccc4)c4ccccc4)cc3)c3ccc(C)n3[B-]2(F)F)C=C1` the emission maximum (in C1CCOC1) was 530 nm.
`C1=Cc2ccccc2C(=Cc2ccc(-c3ccc(C=C4c5ccccc5-c5ccccc54)cc3)cc2)c2ccccc21` showed an emission maximum (in C1CCOC1) of 450 nm.
`Cc1cc2ccccc2c2c1c1ccccc1n2C(=O)OC(C)(C)C` gave an emission maximum (in ClCCl) of 355 nm.
`COc1c2ccccc2c(-c2ccccc2)c2ccccc12` gave an emission maximum (in C1COCCO1) of 424 nm, an emission maximum (in CCCCCC) of 420 nm and an emission maximum (in CCCCCCC) of 420 nm. It also gave an emission maximum (in CCCCO) of 426 nm, an emission maximum (in CCO) of 426 nm and an emission maximum (in CN(C)C=O) of 426 nm. The emission maximum (in Cc1ccccc1) was 419 nm, the emission maximum (in ClC(Cl)(Cl)Cl) was 426 nm and the emission maximum (in ClC(Cl)Cl) was 426 nm. The emission maximum (in ClCCl) was 426 nm, the emission maximum (in OCC(O)CO) was 426 nm and the emission maximum (in OCCO) was 426 nm.
Compound `CC1=C(C#Cc2ccc([Si](c3ccccc3)(c3ccccc3)c3ccccc3)cc2)C(C)=[N+]2C1=C(c1ccccc1)c1c(C)c(C#Cc3ccc([Si](c4ccccc4)(c4ccccc4)c4ccccc4)cc3)c(C)n1[B-]2(F)F` has an emission maximum (in ClCCl) of 600 nm.
With `CCOC(=O)CCCCCn1c2ccc(N)cc2c(=O)c2cc(N)ccc21` the emission maximum (in O) was 547 nm.
For `Cc1cc(C)nc(N)n1`, the emission maximum (in CCO) was 337 nm, the emission maximum (in CO) was 339 nm and the emission maximum (in O) was 342 nm.
Work on `c1ccc(-c2nnc(-c3ccccc3)n2-c2ccc(N3c4ccccc4N(c4ccccc4)c4ccccc43)cc2)cc1` yielded an emission maximum (in Cc1ccccc1) of 495 nm and an emission maximum (in c1cc(-n2c3ccccc3c3ccccc32)cc(-n2c3ccccc3c3ccccc32)c1) of 474 nm.
In the case of `CCCCCCCCCn1c(-c2cc(-c3nc4ccc(C)cc4n3CCCCCCCCC)cc(-c3nc4ccc(C)cc4n3CCCCCCCCC)c2)nc2ccc(C)cc21`, the emission maximum (in C1CCOC1) is reported as 371 nm.
`CCOC(=O)c1sc(SC)c2c(=O)[nH]nnc12` gave an emission maximum (in C1CCOC1) of 465 nm, an emission maximum (in CC#N) of 478 nm and an emission maximum (in CCO) of 492 nm. The emission maximum (in CN(C)C=O) was 478 nm, the emission maximum (in CO) was 499 nm and the emission maximum (in CS(C)=O) was 491 nm.
In the case of `COc1cc(OC)c(C2=C3C(C)=CC(C)=[N+]3[B-](F)(F)n3c(C)cc(C)c32)c(OC)c1`, the emission maximum (in C1CCOC1) is reported as 517 nm, the emission maximum (in CC#N) is reported as 513 nm and the emission maximum (in CC(=O)C(C)(C)C) is reported as 517 nm. It also gave an emission maximum (in CC(C)=O) of 515 nm, an emission maximum (in CCCCCC) of 520 nm and an emission maximum (in CCOC(C)=O) of 511 nm. For the same compound, the emission maximum (in CO) was 515 nm.
For `F[B-]1(F)n2c(cc3ccc4ccccc4c32)C(c2ccc(I)cc2)=C2C=C3CCc4ccccc4C3=[N+]21`, the emission maximum (in ClC(Cl)Cl) was 668 nm.
For `Cc1cc(C)c(C2=C3C=CC(c4cccc5ccccc45)=[N+]3[B-](F)(F)n3c2ccc3-c2cccc3ccccc23)c(C)c1`, the emission maximum (in ClC(Cl)Cl) was 601 nm.
Work on `CN(C)c1ccc(/C=C/C(=O)c2ccc(Cl)cc2)cc1` yielded an emission maximum (in C1CCOC1) of 516 nm, an emission maximum (in CC#N) of 540 nm and an emission maximum (in CC(=O)O) of 521 nm. The emission maximum (in CC(C)=O) was 532 nm, the emission maximum (in CCO) was 542 nm and the emission maximum (in CN(C)C=O) was 542 nm. The emission maximum (in CO) was 544 nm, the emission maximum (in Cc1ccccc1) was 486 nm and the emission maximum (in ClC(Cl)Cl) was 522 nm. The emission maximum (in c1ccccc1) was 488 nm.
`CC1(C)c2ccccc2N(c2ccc3c(c2)c2ccccc2n2c4ccccc4nc32)c2ccccc21` gave an emission maximum (in Cc1ccccc1) of 437 nm and an emission maximum (in O=P(c1ccccc1)(c1ccccc1)c1ccccc1Oc1ccccc1P(=O)(c1ccccc1)c1ccccc1) of 447.06 nm.
`CCC1=C(C)C2=C(c3c4ccccc4cc4ccccc34)c3c(C)c(CC)c(C)n3[B-](F)(F)[N+]2=C1C` showed an emission maximum (in CC#N) of 537 nm, an emission maximum (in CCCCCC) of 539 nm and an emission maximum (in CCO) of 539 nm. For the same compound, the emission maximum (in CN(C)C=O) was 541 nm, the emission maximum (in Cc1ccccc1) was 544 nm and the emission maximum (in ClCCl) was 543 nm.
`CCCn1c2cccc3oc4cccc5c4[c+](c32)c2c1cccc2n5CCC` showed an emission maximum (in CC#N) of 590 nm.
Compound `O=C(O)C1=C/C(=C/C=[NH+]/c2ccc3c(C(F)(F)F)cc(=O)oc3c2)CC(C(=O)O)N1` (stereo not drawn) has an emission maximum (in O) of 570 nm.
In the case of `COC(=O)c1cc(=O)n(C)c2cc(-c3ccccc3OC)sc12`, the emission maximum (in CC#N) is reported as 468 nm and the emission maximum (in ClCCl) is reported as 469 nm.
Compound `Cc1cc(/N=C/c2cc(S(=O)(=O)[O][Na])ccc2O)c(/N=C/c2cc(S(=O)(=O)[O][Na])ccc2O)cc1C` has an emission maximum (in O) of 426 nm.
Compound `CN(C)c1ccc(/C=C/c2nc(/C=C/c3ccc(N(c4ccccc4)c4ccccc4)cc3)cc(/C=C/c3ccc(N(c4ccccc4)c4ccccc4)cc3)n2)cc1` has an emission maximum (in C1CCOC1) of 512 nm, an emission maximum (in CC#N) of 574 nm and an emission maximum (in CC(C)=O) of 552 nm. The emission maximum (in CCCCCCC) was 460 nm, the emission maximum (in CS(C)=O) was 577 nm and the emission maximum (in Cc1ccccc1) was 495 nm. For the same compound, the emission maximum (in ClCCl) was 577 nm.
Compound `CCOC(=O)c1cc(C(=O)OCC)c2cc(O)ccc2n1` has an emission maximum (in CCO) of 466 nm.
Compound `N#Cc1ccc(N/N=C/c2ccc3ccccc3c2O)cc1` has an emission maximum (in CC#N) of 446 nm, an emission maximum (in CCCCCC) of 415 nm and an emission maximum (in CO) of 482 nm. It also gave an emission maximum (in CS(C)=O) of 456 nm and an emission maximum (in ClC(Cl)Cl) of 425 nm.
For `Cc1cc(=O)c2ccc(N)cc2o1`, the emission maximum (in C1CCOC1) was 382 nm, the emission maximum (in C1COCCO1) was 378 nm and the emission maximum (in CC#N) was 388 nm. For the same compound, the emission maximum (in CC(C)O) was 418 nm, the emission maximum (in CCCCO) was 417 nm and the emission maximum (in CCCO) was 416 nm. For the same compound, the emission maximum (in CCOC(C)=O) was 378 nm, the emission maximum (in CN(C)C=O) was 408 nm and the emission maximum (in CO) was 421 nm. For the same compound, the emission maximum (in CS(C)=O) was 402 nm, the emission maximum (in ClC(Cl)Cl) was 380 nm and the emission maximum (in O) was 435 nm.
`CCOC(=O)c1sc2nc(-c3ccccc3)c(C)c(C#N)c2c1N` showed an emission maximum (in C1COCCO1) of 554 nm, an emission maximum (in CC#N) of 570 nm and an emission maximum (in CCO) of 580 nm. The emission maximum (in CCOC(C)=O) was 558 nm, the emission maximum (in ClC(Cl)Cl) was 550 nm and the emission maximum (in c1ccccc1) was 549 nm.
With `CC(C)c1cc(C(C)C)c(B2c3ccccc3Oc3cc(N4c5ccccc5C(C)(C)c5ccccc54)ccc32)c(C(C)C)c1` the emission maximum (in Cc1ccccc1) was 475 nm.
`COc1ccc(/C=C/c2ccccc2)cc1` gave an emission maximum (in C1CCCCC1) of 364 nm, an emission maximum (in CC#N) of 374 nm and an emission maximum (in CC(C)O) of 365 nm. For the same compound, the emission maximum (in CCCCOCCCC) was 367 nm, the emission maximum (in CCOC(C)=O) was 366 nm and the emission maximum (in CCOCC) was 366 nm.
With `c1ccc2c(c1)oc1nc3oc4ccc(-n5c6ccccc6c6ccccc65)cc4c3cc12` the emission maximum (in ClC(Cl)Cl) was 448 nm.
`O=c1oc2cc3c(cc2cc1/C=C/c1ccccc1)OCO3` showed an emission maximum (in CC#N) of 469 nm.
In the case of `CCCCCCN(CCCCCC)c1ccc(C#Cc2ccc(/C=C/c3ccc(-c4ccc(/C=C/c5ccc(C#Cc6ccc(N(CCCCCC)CCCCCC)cc6)cc5)cc4)cc3)cc2)cc1`, the emission maximum (in Cc1ccccc1) is reported as 452 nm.
`CC(C)(C)c1ccc2c(c1)c1cc(C(C)(C)C)cc3c1n2-c1cc(-c2ccc(F)cc2)cc2c1B3c1cc(C(C)(C)C)cc3c4cc(C(C)(C)C)ccc4n-2c13` showed an emission maximum (in Cc1ccccc1) of 496.94 nm.
For `c1ccc2c(-n3cnc4ccccc43)cccc2c1`, the emission maximum (in C1CCCCC1) was 358 nm, the emission maximum (in C1CCOC1) was 359 nm and the emission maximum (in CC#N) was 362 nm. For the same compound, the emission maximum (in CCO) was 360 nm, the emission maximum (in CCOC(C)=O) was 361 nm and the emission maximum (in CCOCC) was 361 nm. For the same compound, the emission maximum (in CO) was 360 nm, the emission maximum (in Cc1ccccc1) was 359 nm and the emission maximum (in ClC(Cl)Cl) was 362 nm.
In the case of `C[Si](C)(C)c1ccc(C#N)c2ccccc12`, the emission maximum (in C1CCCCC1) is reported as 333 nm.
`CCOC(=O)c1sc2nc3c(c(C#N)c2c1N)CCCC3` gave an emission maximum (in c1ccccc1) of 545 nm.
Compound `O=C(c1ccc(N2c3ccccc3Sc3ccccc32)cc1)c1ccc2sc3ccccc3c2c1` has an emission maximum (in C1CCOC1) of 604 nm and an emission maximum (in c1ccc2c(c1)c1ccccc1n2-c1ccc(-c2ccc(-n3c4ccccc4c4ccccc43)cc2)cc1) of 524 nm.
With `N#C/C(=N/Nc1ccc(C#N)cc1)c1nc(-c2ccccc2)cs1` the emission maximum (in CCO) was 486 nm, the emission maximum (in Cc1ccccc1) was 490 nm and the emission maximum (in ClCCl) was 492 nm.
`O=C1OC(=O)c2ccc(N(c3ccccc3)c3c4ccccc4cc4ccccc34)c3cccc1c23` showed an emission maximum (in C1CCOC1) of 591 nm, an emission maximum (in CCCCCC) of 514 nm and an emission maximum (in ClCCl) of 608 nm. The emission maximum (in c1ccccc1) was 560 nm.
Compound `C#CCn1c2ccccc2c2cc(/C=C/C3=[N+]4C(=C(c5ccc(I)cc5)c5c(C)cc(/C=C/c6ccc7c(c6)c6ccccc6n7CC#C)n5[B-]4(F)F)C(C)=C3)ccc21` has an emission maximum (in CC#N) of 688 nm, an emission maximum (in CS(C)=O) of 703 nm and an emission maximum (in ClC(Cl)Cl) of 691 nm.
